Read-outs that look alike come from different tables or passages of the source.
Key:
SYK = SYK (Homo sapiens, UniProt P43405); experiment: Kinase panel screening; assay type: biochemical
Description: (§1) Using the compound of Example 43 (1-(4-((4-ethylpiperazine-1-yl)methyl)-3-(trifluoromethyl)phenyl)-3-(4-(2-oxo-2,3-dihydro-1H-thieno[3,4-b][1,4]diazepine-4-yl)phenyl)urea), kinase panel screening was conducted against 35 kinds of kinases at a concentration of 10 μM, and the results are shown in the following Tables 4 and 5 (percentages of enzymatic inhibitions exerted by compound 43 (10 μM) on 30 selected protein kinases).
(§2) Further, the IC50 values (50% inhibition concentration) of the compound of Example 43 against various kinases were calculated using GraphPad Prism 4.0 software, and the results are shown in the following Table 6.

c-MET = c-MET (Homo sapiens, UniProt P08581); experiment: Kinase panel screening; assay type: biochemical
Description: as §1, §2

FAK/PTK2 = FAK/PTK2 (Homo sapiens, UniProt Q05397); experiment: Kinase panel screening; assay type: biochemical; settings: FAK/PTK2, 10 μM
Description: as §1, §2

CDK2/cyclin E = CDK2/cyclin E (Homo sapiens, UniProt P24941); experiment: Kinase panel screening; assay type: biochemical
Description: as §1, §2

RET = RET (Homo sapiens, UniProt P07949); experiment: Kinase panel screening; assay type: biochemical
Description: as §1, §2

RAF1 = RAF1 (Homo sapiens, UniProt P04049); experiment: Kinase panel screening; assay type: biochemical; settings: RAF1, 10 μM
Description: as §1, §2

P38a/MAPK14 = P38a/MAPK14 (Homo sapiens, UniProt Q16539); experiment: Kinase panel screening; assay type: biochemical; settings: P38a/MAPK14, 10 μM
Description: as §1, §2

KDR/VEGFR2 = KDR/VEGFR2 (Homo sapiens, UniProt P35968); experiment: Kinase panel screening; assay type: biochemical; settings: KDR/VEGFR2, 10 μM
Description: as §1, §2

FLT4/VEGFR3 = FLT4/VEGFR3 (Homo sapiens, UniProt P35916); experiment: Kinase panel screening; assay type: biochemical; settings: FLT4/VEGFR3, 10 μM
Description: as §1, §2

c-Src = c-Src (Homo sapiens, UniProt P12931); experiment: Kinase panel screening; assay type: biochemical
Description: as §1, §2

FLT3 = FLT3 (Homo sapiens, UniProt P36888); experiment: Kinase panel screening; assay type: biochemical; settings: FLT3, 10 μM
FLT3, sequence (P36888 27-993): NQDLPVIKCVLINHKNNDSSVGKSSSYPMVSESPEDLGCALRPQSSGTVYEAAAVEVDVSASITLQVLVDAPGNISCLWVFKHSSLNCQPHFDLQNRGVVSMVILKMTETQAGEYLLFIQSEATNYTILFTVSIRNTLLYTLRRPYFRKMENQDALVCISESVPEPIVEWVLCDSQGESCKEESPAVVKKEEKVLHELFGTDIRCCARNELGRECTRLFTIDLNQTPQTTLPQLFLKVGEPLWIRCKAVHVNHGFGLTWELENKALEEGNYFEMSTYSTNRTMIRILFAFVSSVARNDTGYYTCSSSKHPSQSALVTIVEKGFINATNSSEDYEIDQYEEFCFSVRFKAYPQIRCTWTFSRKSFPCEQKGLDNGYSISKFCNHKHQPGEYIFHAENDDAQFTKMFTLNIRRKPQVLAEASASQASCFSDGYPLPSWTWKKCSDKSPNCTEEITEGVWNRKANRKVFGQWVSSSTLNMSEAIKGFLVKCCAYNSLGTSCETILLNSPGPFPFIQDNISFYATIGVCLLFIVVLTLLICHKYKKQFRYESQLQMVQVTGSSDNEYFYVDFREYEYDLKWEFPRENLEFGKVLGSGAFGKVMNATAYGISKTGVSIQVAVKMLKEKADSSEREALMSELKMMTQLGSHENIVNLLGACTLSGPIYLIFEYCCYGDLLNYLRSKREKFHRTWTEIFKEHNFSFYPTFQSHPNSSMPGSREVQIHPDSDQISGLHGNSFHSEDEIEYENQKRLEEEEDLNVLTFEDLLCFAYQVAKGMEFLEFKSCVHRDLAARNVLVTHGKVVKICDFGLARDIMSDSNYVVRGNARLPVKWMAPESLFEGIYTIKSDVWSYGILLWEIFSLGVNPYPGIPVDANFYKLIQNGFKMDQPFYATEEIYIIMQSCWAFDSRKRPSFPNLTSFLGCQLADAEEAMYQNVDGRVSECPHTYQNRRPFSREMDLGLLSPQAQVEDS
Description: as §1, §2

BRAF (V599E) = BRAF (V599E) (Homo sapiens, UniProt P15056, V600E); experiment: Kinase panel screening; assay type: biochemical
Description: as §1, §2

ITK = ITK (Homo sapiens, UniProt Q08881); experiment: Kinase panel screening; assay type: biochemical
Description: as §1, §2

PDGFRa = PDGFRa (Homo sapiens, UniProt P16234); experiment: Kinase panel screening; assay type: biochemical
Description: as §1, §2

Aurora A = Aurora A (Homo sapiens, UniProt O14965); experiment: Kinase panel screening; assay type: biochemical
Description: as §1, §2

AKT1 = AKT1 (Homo sapiens, UniProt P31749); experiment: Kinase panel screening; assay type: biochemical; settings: AKT1, 10 μM
Description: as §1, §2

IGF1R = IGF1R (Homo sapiens, UniProt P08069); experiment: Kinase panel screening; assay type: biochemical
Description: as §1, §2

CDK1/cyclin B = CDK1/cyclin B (Homo sapiens, UniProt P06493); experiment: Kinase panel screening; assay type: biochemical
Description: as §1, §2

LYN = LYN (Homo sapiens, UniProt P07948); experiment: Kinase panel screening; assay type: biochemical
Description: as §1, §2

MEK1 = MEK1 (Homo sapiens, UniProt Q02750); experiment: Kinase panel screening; assay type: biochemical; settings: MEK1, 10 μM
Description: as §1, §2

FGFR2 = FGFR2 (Homo sapiens, UniProt P21802); experiment: Kinase panel screening; assay type: biochemical; settings: FGFR2, 10 μM
Description: as §1, §2

c-Kit = c-Kit (Homo sapiens, UniProt P10721); experiment: Kinase panel screening; assay type: biochemical
c-Kit, sequence (P10721 26-976): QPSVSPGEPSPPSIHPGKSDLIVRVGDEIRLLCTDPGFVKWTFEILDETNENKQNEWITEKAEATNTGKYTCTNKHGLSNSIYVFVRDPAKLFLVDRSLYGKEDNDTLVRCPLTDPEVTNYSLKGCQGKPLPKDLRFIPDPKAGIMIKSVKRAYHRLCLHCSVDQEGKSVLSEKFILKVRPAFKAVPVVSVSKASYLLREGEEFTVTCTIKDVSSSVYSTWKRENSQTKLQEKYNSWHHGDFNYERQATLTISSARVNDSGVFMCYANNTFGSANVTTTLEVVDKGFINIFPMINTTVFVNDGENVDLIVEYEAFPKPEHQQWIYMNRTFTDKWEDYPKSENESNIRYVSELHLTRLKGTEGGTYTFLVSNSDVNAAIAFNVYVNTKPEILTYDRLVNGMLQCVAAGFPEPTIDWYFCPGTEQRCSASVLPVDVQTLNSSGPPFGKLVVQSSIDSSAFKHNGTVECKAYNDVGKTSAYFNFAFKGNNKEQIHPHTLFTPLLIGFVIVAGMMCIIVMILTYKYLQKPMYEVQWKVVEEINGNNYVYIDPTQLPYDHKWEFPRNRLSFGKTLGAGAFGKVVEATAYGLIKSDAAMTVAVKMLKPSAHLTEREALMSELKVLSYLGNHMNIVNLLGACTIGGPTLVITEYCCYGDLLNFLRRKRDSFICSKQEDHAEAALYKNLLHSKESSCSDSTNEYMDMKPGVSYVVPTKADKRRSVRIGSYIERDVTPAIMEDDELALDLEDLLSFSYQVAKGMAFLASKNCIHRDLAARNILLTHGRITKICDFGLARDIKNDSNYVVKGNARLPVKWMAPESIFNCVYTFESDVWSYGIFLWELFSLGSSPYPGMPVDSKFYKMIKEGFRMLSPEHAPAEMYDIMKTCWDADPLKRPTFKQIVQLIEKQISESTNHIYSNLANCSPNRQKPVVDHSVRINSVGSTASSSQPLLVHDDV
Description: as §1, §2

GSK3b = GSK3b (Homo sapiens, UniProt P49841); experiment: Kinase panel screening; assay type: biochemical
Description: as §1, §2

FLT1/VEGFR1 = FLT1/VEGFR1 (Homo sapiens, UniProt P17948); experiment: Kinase panel screening; assay type: biochemical; settings: FLT1/VEGFR1, 10 μM
Description: as §1, §2

FGFR1 = FGFR1 (Homo sapiens, UniProt P11362); experiment: Kinase panel screening; assay type: biochemical; settings: FGFR1, 10 μM
FGFR1, sequence (P11362 22-822, species assumed): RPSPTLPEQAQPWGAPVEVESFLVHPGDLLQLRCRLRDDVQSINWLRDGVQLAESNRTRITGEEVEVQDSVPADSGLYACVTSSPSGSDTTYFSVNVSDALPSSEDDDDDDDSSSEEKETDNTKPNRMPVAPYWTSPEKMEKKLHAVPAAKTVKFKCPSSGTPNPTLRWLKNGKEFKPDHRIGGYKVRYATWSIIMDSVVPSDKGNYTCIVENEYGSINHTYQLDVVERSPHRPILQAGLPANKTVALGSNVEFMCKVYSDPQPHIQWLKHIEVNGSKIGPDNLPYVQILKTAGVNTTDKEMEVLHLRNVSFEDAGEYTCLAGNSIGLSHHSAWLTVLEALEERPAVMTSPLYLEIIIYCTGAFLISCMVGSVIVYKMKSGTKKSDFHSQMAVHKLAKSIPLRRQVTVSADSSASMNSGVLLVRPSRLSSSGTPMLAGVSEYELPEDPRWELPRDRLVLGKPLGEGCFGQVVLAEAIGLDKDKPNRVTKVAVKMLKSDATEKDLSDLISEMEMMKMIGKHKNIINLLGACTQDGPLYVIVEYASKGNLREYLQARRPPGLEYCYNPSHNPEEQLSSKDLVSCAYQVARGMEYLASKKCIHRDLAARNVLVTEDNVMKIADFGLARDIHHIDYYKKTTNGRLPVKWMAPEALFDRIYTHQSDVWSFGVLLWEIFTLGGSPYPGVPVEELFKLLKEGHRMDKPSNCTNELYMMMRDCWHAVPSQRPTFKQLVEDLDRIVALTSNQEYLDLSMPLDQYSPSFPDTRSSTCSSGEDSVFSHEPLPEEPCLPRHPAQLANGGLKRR
Description: as §1, §2

EGFR = EGFR (Homo sapiens, UniProt P00533); experiment: Kinase panel screening; assay type: biochemical
Description: as §1, §2

TIE2/TEK = TIE2/TEK (Homo sapiens, UniProt Q02763); experiment: Kinase panel screening; assay type: biochemical
Description: as §1, §2

FMS = FMS (Homo sapiens, UniProt P07333); experiment: Kinase panel screening; assay type: biochemical
Description: as §1, §2

LCK = LCK (Homo sapiens, UniProt P06239); experiment: Kinase panel screening; assay type: biochemical
Description: as §1, §2

ROS/ROS1 = ROS/ROS1 (Homo sapiens, UniProt P08922); experiment: Kinase panel screening; assay type: biochemical; settings: ROS/ROS1, 10 μM
ROS/ROS1, sequence (P08922 28-2347): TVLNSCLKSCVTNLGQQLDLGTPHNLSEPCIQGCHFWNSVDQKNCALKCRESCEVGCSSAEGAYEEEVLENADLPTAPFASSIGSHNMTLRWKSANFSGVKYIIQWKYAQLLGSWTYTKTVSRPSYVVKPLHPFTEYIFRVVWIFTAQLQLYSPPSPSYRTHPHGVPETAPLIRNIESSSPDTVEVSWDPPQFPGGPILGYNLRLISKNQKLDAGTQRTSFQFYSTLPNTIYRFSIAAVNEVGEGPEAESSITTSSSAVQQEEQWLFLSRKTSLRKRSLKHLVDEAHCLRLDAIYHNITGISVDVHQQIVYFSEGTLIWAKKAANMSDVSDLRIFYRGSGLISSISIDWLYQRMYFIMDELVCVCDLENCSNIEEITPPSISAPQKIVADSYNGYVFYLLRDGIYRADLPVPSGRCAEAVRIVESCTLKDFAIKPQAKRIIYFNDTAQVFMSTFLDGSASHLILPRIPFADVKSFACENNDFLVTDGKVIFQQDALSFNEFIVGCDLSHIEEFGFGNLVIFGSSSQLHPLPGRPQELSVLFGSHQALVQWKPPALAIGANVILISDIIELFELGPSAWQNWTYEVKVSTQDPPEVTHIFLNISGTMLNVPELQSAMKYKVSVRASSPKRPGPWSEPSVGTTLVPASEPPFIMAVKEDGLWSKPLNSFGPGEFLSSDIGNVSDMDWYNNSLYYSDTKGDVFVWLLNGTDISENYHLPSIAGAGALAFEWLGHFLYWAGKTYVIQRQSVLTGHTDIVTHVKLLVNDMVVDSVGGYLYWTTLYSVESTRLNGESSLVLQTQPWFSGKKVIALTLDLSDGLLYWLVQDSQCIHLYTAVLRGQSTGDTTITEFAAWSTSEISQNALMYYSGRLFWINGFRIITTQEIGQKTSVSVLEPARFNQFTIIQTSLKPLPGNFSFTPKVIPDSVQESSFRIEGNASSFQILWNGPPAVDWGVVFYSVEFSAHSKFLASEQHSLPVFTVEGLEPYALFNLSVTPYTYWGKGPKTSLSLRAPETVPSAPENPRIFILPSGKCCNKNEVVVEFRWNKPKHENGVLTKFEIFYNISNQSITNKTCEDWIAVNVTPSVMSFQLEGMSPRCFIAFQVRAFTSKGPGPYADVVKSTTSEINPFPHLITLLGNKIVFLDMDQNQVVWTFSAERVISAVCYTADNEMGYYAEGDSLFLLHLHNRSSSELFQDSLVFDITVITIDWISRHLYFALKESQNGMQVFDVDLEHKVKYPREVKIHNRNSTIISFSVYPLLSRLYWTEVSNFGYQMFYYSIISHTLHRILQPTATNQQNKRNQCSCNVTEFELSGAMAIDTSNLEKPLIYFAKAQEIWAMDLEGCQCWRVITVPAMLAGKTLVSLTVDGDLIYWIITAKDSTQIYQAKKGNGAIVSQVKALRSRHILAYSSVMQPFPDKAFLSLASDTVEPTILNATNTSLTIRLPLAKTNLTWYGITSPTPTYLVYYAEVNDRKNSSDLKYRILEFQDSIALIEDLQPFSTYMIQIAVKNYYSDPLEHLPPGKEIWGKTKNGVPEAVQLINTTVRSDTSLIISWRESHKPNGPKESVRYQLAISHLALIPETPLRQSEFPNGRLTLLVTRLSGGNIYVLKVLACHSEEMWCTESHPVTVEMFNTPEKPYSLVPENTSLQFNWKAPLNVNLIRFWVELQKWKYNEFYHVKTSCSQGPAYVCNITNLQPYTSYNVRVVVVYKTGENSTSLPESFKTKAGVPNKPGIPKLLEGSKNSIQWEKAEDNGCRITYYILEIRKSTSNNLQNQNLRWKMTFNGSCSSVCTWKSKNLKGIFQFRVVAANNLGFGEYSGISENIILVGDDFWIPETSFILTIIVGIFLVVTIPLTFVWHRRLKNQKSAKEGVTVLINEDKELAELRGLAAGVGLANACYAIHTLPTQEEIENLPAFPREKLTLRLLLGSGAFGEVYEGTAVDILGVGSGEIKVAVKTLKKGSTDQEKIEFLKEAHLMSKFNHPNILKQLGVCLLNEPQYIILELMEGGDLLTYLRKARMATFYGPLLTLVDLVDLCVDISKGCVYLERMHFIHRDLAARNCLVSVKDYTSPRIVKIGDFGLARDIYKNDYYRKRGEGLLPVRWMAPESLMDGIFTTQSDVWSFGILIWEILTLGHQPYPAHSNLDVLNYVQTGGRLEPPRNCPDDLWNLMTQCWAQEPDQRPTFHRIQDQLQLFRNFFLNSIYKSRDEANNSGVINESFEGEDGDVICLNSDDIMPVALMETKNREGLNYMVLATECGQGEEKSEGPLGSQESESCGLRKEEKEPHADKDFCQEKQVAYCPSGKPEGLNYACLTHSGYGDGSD
Description: as §1, §2

ERK1 = ERK1 (Homo sapiens, UniProt P27361); experiment: Kinase panel screening; assay type: biochemical; settings: ERK1, 10 μM
Description: as §1, §2

PDGFRb = PDGFRb (Homo sapiens, UniProt P09619); experiment: Kinase panel screening; assay type: biochemical
Description: as §1, §2

FGFR3 = FGFR3 (Homo sapiens, UniProt P22607); experiment: Kinase panel screening; assay type: biochemical; settings: FGFR3, 10 μM
Description: as §1, §2

ALK = ALK (Homo sapiens, UniProt Q9UM73); experiment: Kinase panel screening; assay type: biochemical
Description: as §1, §2

BRAF = BRAF (Homo sapiens, UniProt P15056); experiment: Kinase panel screening; assay type: biochemical
Description: as §1, §2

[1] = tested on: A375P cell line (melanoma); experiment: Proliferation inhibition activity against A375P cell line (MTT assay); assay type: cell-based; settings: A375P melanoma cells; for GI50: MTT assay
Description: Measurement of Proliferation Inhibition Activity Against A375P Cell Line (Melanoma)
An A375P cell line purchased from ATCC was cultured in a DMEM medium [containing 10% FBS, 1% penicillin/streptomycin] at 37° C. in the presence of 5% CO2. The cultured A375P cell line was taken using 0.05% trypsin-0.02% EDTA, and seeded into a 96-well plate at a density of 5×10^3 cells per well.
Cell viability was measured using an MTT [3-(4,5-dimethylthiazol-2-yl)-2,5-diphenyltetrazolium bromide] assay (CellTiter 96 Assay, Promega) as follows. 15 μl of dye was placed per well, the cells were cultured for 2 hours, and then treated with 100 μl of a stop solution, and after 24 hours, absorbance was measured. One day after plating, they were treated with compounds. For treatment with compounds, […] of stock was prepared, and serially diluted to one-third in dimethyl sulfoxide (DMSO) to prepare a 12-point test compound plate, and 0.5 μl was added (final concentration DMSO 0.5%).
In the following Tables 1 to 3, in a case of GI50 being 10 to 30 μM, it was indicated as (+), in a case of it being 1 to 10 μM, it was indicated as (++), and in case of being less than 1 μM, it was indicated as (+++).

SMILES: CCN1CCN(Cc2ccc(NC(=O)Nc3ccc(C4=Nc5cscc5NC(=O)C4)cc3)cc2C(F)(F)F)CC1 [Example 43, 1-(4-((4-ethylpiperazine-1-yl)methyl)-3-(trifluoromethyl)phenyl)-3-(4-(2-oxo-2,3-dihydro-1H-thieno[3,4-b][1,4]diazepine-4-yl)phenyl)urea]
- inhibition at 10 µM (SYK): 57.4%
- inhibition at 10 µM (c-MET): 21.7%
- inhibition at 10 µM (FAK/PTK2): 41.2%
- inhibition at 10 µM (CDK2/cyclin E): 0.28%
- inhibition at 10 µM (RET): 99.1%
- inhibition at 10 µM (RAF1): 86.2%
- inhibition at 10 µM (P38a/MAPK14): 89.9%
- inhibition at 10 µM (KDR/VEGFR2): 60.2%
- inhibition at 10 µM (FLT4/VEGFR3): 95.8%
- inhibition at 10 µM (c-Src): 55.2%
- inhibition at 10 µM (FLT3): 98.9%
- inhibition at 10 µM (BRAF (V599E)): 43.9%
- inhibition at 10 µM (ITK): 20.7%
- inhibition at 10 µM (PDGFRa): 85.9%
- inhibition at 10 µM (Aurora A): 20.4%
- inhibition at 10 µM (AKT1): 3.23%
- inhibition at 10 µM (IGF1R): 1.34%
- inhibition at 10 µM (CDK1/cyclin B): 2.68%
- inhibition at 10 µM (LYN): 89.4%
- inhibition at 10 µM (MEK1): 5.26%
- inhibition at 10 µM (FGFR2): 29.9%
- inhibition at 10 µM (c-Kit): 85.9%
- inhibition at 10 µM (GSK3b): 8.62%
- inhibition at 10 µM (FLT1/VEGFR1): 79.1%
- inhibition at 10 µM (FGFR1): 34.4%
- inhibition at 10 µM (EGFR): 24.8%
- inhibition at 10 µM (TIE2/TEK): 64.9%
- inhibition at 10 µM (FMS): 100%
- inhibition at 10 µM (LCK): 79.3%
- inhibition at 10 µM (ROS/ROS1): 3.71%
- inhibition at 10 µM (ERK1): 1.22%
- inhibition at 10 µM (PDGFRb): 96.1%
- inhibition at 10 µM (FGFR3): 45%
- inhibition at 10 µM (ALK): 41%
- inhibition at 10 µM (BRAF): 32%
- GI50 ([1]; read-out: A375P (GI50)): < 1000 nM
- GI50 ([1]; read-out: GI50 value against A375P): 1450 nM
- effects against A375P ([1]; statement in words): significant effects

From patent US10174047B2, “Thienodiazepine derivatives or pharmaceutically acceptable salts thereof, and pharmaceutical composition including the same as an active ingredient” (Industry-University Cooperation Foundation Hanyang …, priority 2015, dated 2019)
